Test results reported in ChEMBL document CHEMBL5215009, “Discovery of Pan-peroxisome Proliferator-Activated Receptor Modulators from an Endolichenic Fungus, Daldinia childiae” (J Nat Prod, 2022).
pEC50, pKi: −log10 of the molar value. Blank lines part the entries; values can stand above or below the compound they belong to. Calls of active or inactive are those of the source. No cut-off for these calls is given here.

What was measured:
Mesenchymal stem cells [1] = test: Induction of adipogenesis in differentiated human BMMSC cells assessed as increase in number and size of lipid droplets at 30 uM in presence of IDX by Oil red O staining based inverted microscope analysis; format: functional, cell-based
[2] = molecular target: T1, Peroxisome proliferator-activated receptor alpha (Homo sapiens) (UniProt Q07869); test: Displacement of fluormone pan-PPARgreen from PPARalpha (unknown origin) at 30 uM by TR-FRET based competitive binding assay relative to control
T1 sequence (whole entry): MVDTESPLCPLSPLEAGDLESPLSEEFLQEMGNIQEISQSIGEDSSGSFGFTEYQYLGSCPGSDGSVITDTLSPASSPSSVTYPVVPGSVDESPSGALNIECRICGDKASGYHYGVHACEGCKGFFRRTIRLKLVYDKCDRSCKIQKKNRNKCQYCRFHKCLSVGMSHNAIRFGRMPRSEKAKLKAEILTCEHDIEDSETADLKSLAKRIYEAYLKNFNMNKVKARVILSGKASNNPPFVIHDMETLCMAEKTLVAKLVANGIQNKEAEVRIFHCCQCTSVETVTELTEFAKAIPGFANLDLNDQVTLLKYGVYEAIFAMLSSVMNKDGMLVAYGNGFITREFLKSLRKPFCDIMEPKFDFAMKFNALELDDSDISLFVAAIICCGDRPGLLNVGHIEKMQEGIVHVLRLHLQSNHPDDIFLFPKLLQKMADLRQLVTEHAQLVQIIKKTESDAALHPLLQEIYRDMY

Mesenchymal stem cells [3] = test: Induction of adipogenesis in differentiated human BMMSC cells assessed as fold increase in adiponectin level in presence of IDX by ELISA; format: functional, cell-based
[4] = molecular target: T2, Peroxisome proliferator-activated receptor gamma (Homo sapiens) (UniProt P37231); test: Displacement of fluormone pan-PPARgreen from PPARgamma (unknown origin) at 30 uM by TR-FRET based competitive binding assay relative to control; conditions: filed as partial agonist
T2 sequence (whole entry): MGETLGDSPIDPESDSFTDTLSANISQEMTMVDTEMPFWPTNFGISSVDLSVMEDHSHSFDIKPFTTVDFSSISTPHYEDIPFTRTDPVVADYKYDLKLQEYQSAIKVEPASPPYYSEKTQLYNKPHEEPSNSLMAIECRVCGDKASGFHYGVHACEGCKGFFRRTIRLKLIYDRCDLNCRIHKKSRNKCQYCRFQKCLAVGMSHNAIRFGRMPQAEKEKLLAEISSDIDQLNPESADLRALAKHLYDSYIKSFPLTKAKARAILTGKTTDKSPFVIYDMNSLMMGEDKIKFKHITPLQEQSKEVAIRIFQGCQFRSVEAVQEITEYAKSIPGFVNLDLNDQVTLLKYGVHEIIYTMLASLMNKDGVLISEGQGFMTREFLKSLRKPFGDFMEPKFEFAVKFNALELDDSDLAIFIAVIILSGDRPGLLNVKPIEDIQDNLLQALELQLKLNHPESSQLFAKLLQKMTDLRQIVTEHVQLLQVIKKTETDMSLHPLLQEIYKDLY

[5] = molecular target: T2, Peroxisome proliferator-activated receptor gamma (Homo sapiens); test: Partial agonist activity at PPARgamma in human BMMSC cells assessed as inhibition of pioglitazone-induced adiponectin synthesis measured after 5 days by ELISA; format: cell-based; conditions: filed as partial agonist, dose 10-30 µM, time 5.0 day, DDE = dose-dependent effect
[6] = molecular target: T3, Peroxisome proliferator-activated receptor delta (Homo sapiens) (UniProt Q03181); test: Displacement of fluormone pan-PPARgreen from PPARdelta (unknown origin) at 30 uM by TR-FRET based competitive binding assay relative to control; conditions: filed as partial agonist
T3 sequence (whole entry): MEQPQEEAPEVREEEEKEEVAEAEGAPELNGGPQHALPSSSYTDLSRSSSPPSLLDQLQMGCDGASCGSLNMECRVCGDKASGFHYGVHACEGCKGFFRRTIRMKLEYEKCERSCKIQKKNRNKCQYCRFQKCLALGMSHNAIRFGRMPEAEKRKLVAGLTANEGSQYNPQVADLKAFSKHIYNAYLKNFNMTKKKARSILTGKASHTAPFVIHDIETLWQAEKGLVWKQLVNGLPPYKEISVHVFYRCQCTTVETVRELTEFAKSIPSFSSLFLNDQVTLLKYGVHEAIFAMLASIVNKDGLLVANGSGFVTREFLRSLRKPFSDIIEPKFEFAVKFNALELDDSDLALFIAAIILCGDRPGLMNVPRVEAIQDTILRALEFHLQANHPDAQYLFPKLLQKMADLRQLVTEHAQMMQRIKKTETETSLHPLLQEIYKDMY

Mesenchymal stem cells [7] = test: Induction of adipogenesis in differentiated human BMMSC cells assessed as fold increase in adiponectin level at 30 uM in presence of IDX by ELISA relative to control; format: functional
[8] = molecular target: T4, Peroxisome proliferator-activated receptor gamma (Homo sapiens, UniProt P37231); test: Binding affinity to PPARgamma (unknown origin) assessed as inhibition constant by Cheng-Prusoff equation analysis
T4 sequence (P37231 whole entry): T2 sequence (whole entry)

[9] = molecular target: T5, Peroxisome proliferator-activated receptor delta (Homo sapiens, UniProt Q03181); test: Binding affinity to PPARdelta (unknown origin) assessed as inhibition constant by Cheng-Prusoff equation analysis
T5 sequence (Q03181 whole entry): T3 sequence (whole entry)

[10] = molecular target: T2, Peroxisome proliferator-activated receptor gamma (Homo sapiens); test: Partial agonist activity at PPARgamma (unknown origin) assessed as increase in fluorescein labeled SRC-2 coactivator peptide requirement by Lanthascreen TR-FRET assay; conditions: filed as partial agonist
[11] = molecular target: T6, Retinoic acid receptor RXR-alpha (Homo sapiens, UniProt P19793); test: Agonist activity at RXRalpha-LBD (unknown origin) assessed as transactivation by measuring increase in fluorescein-labelled coactivator PGC-1alpha peptide recruitment by Lanthascreen TR-FRET
T6 sequence (P19793 whole entry): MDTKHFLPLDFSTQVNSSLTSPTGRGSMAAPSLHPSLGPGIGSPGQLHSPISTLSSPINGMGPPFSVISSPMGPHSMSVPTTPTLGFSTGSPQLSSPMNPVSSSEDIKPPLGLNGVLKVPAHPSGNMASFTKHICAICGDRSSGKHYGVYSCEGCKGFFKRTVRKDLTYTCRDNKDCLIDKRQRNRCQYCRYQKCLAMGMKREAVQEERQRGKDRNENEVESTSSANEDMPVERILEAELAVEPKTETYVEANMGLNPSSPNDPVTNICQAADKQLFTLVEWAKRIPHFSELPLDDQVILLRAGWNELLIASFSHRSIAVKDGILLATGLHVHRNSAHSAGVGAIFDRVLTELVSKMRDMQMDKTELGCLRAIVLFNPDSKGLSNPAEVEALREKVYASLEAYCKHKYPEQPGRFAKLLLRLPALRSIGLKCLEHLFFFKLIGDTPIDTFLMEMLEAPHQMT

[12] = molecular target: T7, Peroxisome proliferator-activated receptor alpha (Homo sapiens, UniProt Q07869); test: Partial agonist activity at PPARalpha (unknown origin) assessed as increase in PRIP/RAP250 coactivator peptide requirement by Lanthascreen TR-FRET assay
T7 sequence (Q07869 whole entry): T1 sequence (whole entry)

[13] = molecular target: T5, Peroxisome proliferator-activated receptor delta; test: Partial agonist activity at PPARdelta (unknown origin) assessed as increase in fluorescein labeled PRIP/RAP250 coactivator peptide requirement by Lanthascreen TR-FRET assay
[14] = molecular target: T4, Peroxisome proliferator-activated receptor gamma; test: Partial agonist activity at PPARgamma (unknown origin) assessed as increase in fluorescein labeled PRIP/RAP250 coactivator peptide requirement by Lanthascreen TR-FRET assay
[15] = molecular target: T7, Peroxisome proliferator-activated receptor alpha; test: Binding affinity to PPARalpha (unknown origin) assessed as inhibition constant by Cheng-Prusoff equation analysis
[16] = molecular target: T2, Peroxisome proliferator-activated receptor gamma (Homo sapiens); test: Partial agonist activity at PPARgamma (unknown origin) assessed as increase in fluorescein labeled SRC-1 coactivator peptide requirement by Lanthascreen TR-FRET assay; conditions: filed as partial agonist
[17] = molecular target: T8, Retinoic acid receptor RXR-alpha (Homo sapiens) (UniProt P19793); test: Agonist activity at RXRalpha-LBD (unknown origin) assessed as transactivation by measuring increase in fluorescein-labelled coactivator PGC-1alpha peptide recruitment at 60 uM by Lanthascreen TR-FRET assay relative to control; conditions: filed as agonist
T8 sequence (whole entry): T6 sequence (P19793 whole entry)

Mesenchymal stem cells [18] = test: Induction of adipogenesis in differentiated human BMMSC cells assessed as increase in adiponectin level at 30 uM in presence of IDX by ELISA; format: functional, cell-based
Mesenchymal stem cells [19] = test: Induction of adipogenesis in differentiated human BMMSC cells assessed as fold increase in adiponectin level at 5 uM in presence of IDX by ELISA relative to control; format: functional

Activity [2]: 37.6%
pEC50 (Mesenchymal stem cells [3]): 4.82
Activity [4]: 61.2%
inhibition [5]: Dde
Activity [6]: 42.1%
pKi [8]: 5.18
Compound: COc1cccc2ccc(-c3ccc(O)c4c(OC)cccc34)c(O)c12
Activity (Mesenchymal stem cells [1]): Active
fold change (FC) (Mesenchymal stem cells [7]): 6

pEC50 (Mesenchymal stem cells [3]): 6.10
Compound: CCc1ccc(CCOc2ccc(CC3SC(=O)NC3=O)cc2)nc1 (stereo not given) [PIOGLITAZONE]

pKi [9]: 4.73
Activity [10]: Active
Activity ([2]; filed as partial agonist): 56.5%
pEC50 [11]: 4.28
pEC50 [12]: 4.24
pEC50 (Mesenchymal stem cells [3]): 4.51
pEC50 [13]: 4.27
pEC50 [14]: 4.29
Activity [4]: 52%
pKi [15]: 5.03
Activity [16]: Active
inhibition [5]: Dde
Activity [6]: 51.8%
Activity [17]: 53.2%
pKi [8]: 4.72
Compound: COc1cccc2ccc(-c3cc(-c4ccc5cccc(OC)c5c4O)c4cccc(OC)c4c3O)c(O)c12
Activity (Mesenchymal stem cells [1]): Active
fold change (FC) (Mesenchymal stem cells [7]): 4.1

Compound: COc1cccc2ccc(-c3cc(-c4ccc(O)c5c(OC)cccc45)c4cccc(OC)c4c3O)c(O)c12
Activity (Mesenchymal stem cells [18]): Active

Compound: Cc1cc(=O)c2c(O)cccc2o1
Activity (Mesenchymal stem cells [18]): Active

Compound: CC(=O)c1c(O)cccc1O
Activity (Mesenchymal stem cells [18]): Active

Compound: COc1cccc2c(-c3cc(-c4ccc(O)c5c(OC)cccc45)c4cccc(OC)c4c3O)ccc(O)c12
Activity (Mesenchymal stem cells [18]): Active

Compound: COc1cccc2c(-c3ccc(O)c4c(OC)cccc34)ccc(O)c12
Activity (Mesenchymal stem cells [18]): Active

Compound: O=C1CCC(O)c2cccc(O)c21 (stereo not given)
Activity (Mesenchymal stem cells [18]): Active

Compound: COc1cccc2ccc(-c3cc(-c4ccc(O)c5c(OC)cccc45)c(O)c4c(OC)cccc34)c(O)c12
Activity (Mesenchymal stem cells [18]): Active

Compound: COc1cccc2ccc(-c3ccc4cccc(OC)c4c3O)c(O)c12
Activity (Mesenchymal stem cells [18]): Active

Compound: COc1ccc(Cl)cc1C(=O)NCCc1ccc(S(=O)(=O)NC(=O)NC2CCCCC2)cc1 [GLYBURIDE]
fold change (FC) (Mesenchymal stem cells [19]): 4.93
